Laboratory results from patent US12122848B2, “Compositions and methods for treating fibroids” (THE LUNDQUIST INSTITUTE FOR BIOMEDICAL INNOVATION AT …, priority 2020, dated 2024).
“Also recorded” adds a separate entry of the source.

Tests used:
leiomyoma explants [1] = assay: In vivo experiment: leiomyoma explants implanted subcutaneously in ovariectomized CB-17 scid/beige mice; conditions: 10 mg/Kg daily, i.p., 8 weeks
Experimental: FIG. 7A-E. (A) Representative of the gross appearance of leiomyoma specimens (arrow) implanted subcutaneously in CB-17 SCID/Beige female mice following 8 weeks treatment of vehicle (left) or TDO2 inhibitor (right; 680C91; 10 mg/Kg daily via IP). (B) The relative explants weight between vehicle and 680C91 treated group after 8 weeks treatment (n=6). The ratio of plasma kynurenine vs tryptophan levels was shown in (C). (D) QRT-PCR analysis of COL1A1, FN1, DNMT1 and CCND1 expression in explants (n=6) implanted subcutaneously after 8 weeks treatment of vehicle or TDO2 inhibitor. (E) Paraformaldehyde-fixed paraffin-embedded xenograft explants of vehicle (a) or TDO2 inhibitor (b) stained with Masson's Trichrome reagent. […] The results are presented as mean±SEM with P values (*:p<0.05) indicated by corresponding lines.
We also performed the in vivo experiment using freshly collected leiomyoma explants implanted subcutaneously in the flank of ovariectomized CB-17 scid/beige female mice (N=6), and treated with vehicle or TDO2 inhibitor (680C91; 10 mg/Kg daily, i.p.) for 8 weeks (FIG. 7A). After sacrifice, the explants weight was determined and the collected plasma was analyzed for levels of tryptophan, kynurenine and blood chemistry panel (Abaxis).

leiomyoma explants [2] = assay: Preliminary experiment: leiomyoma explants implanted subcutaneously in ovariectomized CB-17 scid/beige mice; assay type: in vivo; conditions: 8 mg/Kg daily via IP, 8 weeks
Experimental: This example also performed a preliminary experiment using freshly collected leiomyoma explants implanted subcutaneously on the flank of ovariectomized CB-17 scid/beige female mice (N=2), and treated with vehicle or TDO2 inhibitor (680C91; 8 mg/Kg daily via IP) for 8 weeks. After sacrifice, plasma was collected and analyzed for blood chemistry panel (Abaxis).

[3] = test system: MSMC (myometrial smooth muscle cells) spheroids; assay: Cell proliferation in MSMC spheroids, CellTiter-Glo 3D Cell Viability Assay; assay type: cell-based, human
Experimental: (§1) Isolated MSMC and LSMC were plated in 6-well (1×10^5 cells/well) or 96-well (5×10^3 cells/well) plates which were coated with 0.5% agarose gel and incubated 48 hours for spheroids formation.
(§2) The concentrations of inhibitors used was based on earlier studies and the cell proliferation was determined using the CellTiter-Glo 3D Cell Viability Assay (Promega, Madison, WI) according to the manufacturer's protocol. The assay was performed in six replicates per condition and repeated four times using cells isolated from four different patients.

[4] = test system: LSMC (leiomyoma smooth muscle cells) spheroids; assay: Cell proliferation in LSMC spheroids, CellTiter-Glo 3D Cell Viability Assay; assay type: cell-based, human
Experimental: as §1, §2

leiomyoma explants [5] = assay: CYP1B1 expression in leiomyoma explants (AhR signaling marker); assay type: cell-based, human; conditions: fresh leiomyoma explants, 48 hours; kynurenine 100 μM, tryptophan different doses (mM), 680C91 50 μM
leiomyoma explants [6] = assay: COL1A1 and COL3A1 in culture-conditioned media of leiomyoma explants; assay type: cell-based, human; conditions: fresh leiomyoma explants, different doses, 48 hours, N=2
Experimental: FIG. 5A-F. (A) Representative images of COL1A1 and COL3A1 in culture-conditioned media of leiomyoma explants after treatment with different doses of TDO2 inhibitor, 680C91 for 48 hours (N=2). An equal volume of conditioned media was used, and a Ponceau S-stained protein band on the nitrocellulose membrane was used as a loading control. (B) The effect of DMSO (control) and E2+P4 (10^−8M each) after 48 hours of culture on the expression of IDO1 and TDO2 in LSMC spheroids (N=2). (C) Representative western blot analysis of TDO2 following transfection of LSMC spheroids with anti-miR-200c oligonucleotides for 96 hrs. […] (E-F) QRT-PCR analysis of TDO2 (E), miR-29c and miR-200c (F) in LSMC spheroids after transfection of siRNA negative control (siNC) or TDO2 siRNA oligonucleotides (siTDO2) for 96 hours (N=3). The results are presented as mean±SEM with P values (*:p<0.05) indicated by corresponding lines.
Using fresh leiomyoma explants, we confirmed that the expression of COL1A1 and COL3A1 was decreased in culture-conditioned media following treatment with different doses of TDO2 inhibitor, 680C91 (FIG. 5A).

LSMC spheroids [7] = assay: Immunoblotting of ECM and inflammation proteins in LSMC spheroids after inhibitor treatment; assay type: cell-based, human
Experimental: Total protein isolated from paired tissue samples and MSMC and LSMC spheroids following treatment conditions was subjected to immunoblotting. Briefly, samples were suspended in RIPA buffer containing 1 mM EDTA and EGTA (Boston BioProducts, Ashland, MA) supplemented with 1 mM PMSF and a complete protease inhibitor mixture (Roche Diagnostics, Indianapolis, IN), sonicated, and centrifuged at 4° C. for 10 min at 14,000 rpm. The concentration of protein was determined using the BCA™ Protein Assay Kit (Thermo Scientific Pierce, Rockford, IL). Equal aliquots (thirty micrograms) of total protein for each sample was denatured with SDS-PAGE sample buffer and separated by electrophoresis on a SDS polyacrylamide gel. After transferring the samples to a nitrocellulose membrane, the membrane was blocked with TBS-Tween+5% milk and probed with the following primary antibodies: IDO1 (Cell Signaling Technology, Danvers, MA), TDO2, COL3A1 (Proteintech Group, Inc, Chicago, Illinois) and COL1A1 (Fitzgerald Industries Intl, Acton, MA). The membranes were washed with TBS containing 0.1% Tween-20 wash buffer after each antibody incubation cycle. SuperSignal West Pico Chemiluminescent Substrate™ (Thermo Scientific Pierce) was used for detection, and photographic emulsion was used to identify the protein bands, which were subsequently quantified by densitometry. The membranes were also stripped and probed with glyceraldehyde 3-phosphate dehydrogenase (GAPDH) antibody (Santa Cruz Biotechnology, Santa Cruz, CA) serving as the loading control. The densities of the specific protein bands were determined using image J program (imagej.nih.gov/ij/), normalized to GAPDH or a band obtained from staining the membrane with Ponceau S. Results were expressed as means±SEM as a ratio relative to the control group designated as 1.
as §1

LSMC spheroids [8] = assay: Kynurenine treatment of LSMC spheroids, expression of AhR, IDO1, TDO2 and COL1A1; assay type: cell-based, human; conditions: 100 μM, 72 hours, N=2
Experimental: FIG. 6A-D. (A) The relative (mean±SEM) expression of CYP1B1 in paired (N=43) myometrium (Myo) and leiomyoma (Lyo). (B) Representative images show the levels of AhR and ARNT in fresh subfractionated cytoplasmic (Cyto) and nuclear (Nu) phase from myometrium (Myo) and paired leiomyoma (Lyo) with Calpain 1 and Lamin B1 served as markers for the respective subcellular fractions (N=3). (C) Representative images of CYP1B1 in leiomyoma explants after treatment with kynurenine (100 μM), different doses of tryptophan (mM) and TDO2 inhibitor (680C91, 50 μM) for 48 hours with a Ponceau S-stained protein band on the nitrocellulose membrane used as a loading control (N=2). (D) The effect of kynurenine (KYN, 100 μM) treatment for 72 hours on the expression of AhR, IDO1, TDO2 and COL1A1 in LSMC spheroids (N=2). The results are presented as mean±SEM with P values (*:p<0.05) indicated by corresponding lines.
Using fresh leiomyoma explants we confirmed that the expression of CYP1B1 was increased by the treatment of kynurenine (Kyn) and tryptophan, while decreased following TDO2 inhibitor treatment (FIG. 6C).

[9] = Example 3, various concentrations, 48 hours, n=4
[10] = Example 2, different doses, 48 h
[11] = Example 3, 48 hours, different concentrations

Q: For `Fc1ccc2c(/C=C/c3cccnc3)c[nH]c2c1` [Compound 680C91, 6-Fluoro-3-[(1E)-2-(3-pyridinyl)ethenyl]-1H-indole], which “effects on body weight” value (leiomyoma explants [1]) is on record?
A: Its value is “no effects”.

Q: What about the “effects on food consumption” value (leiomyoma explants [1]) of the same molecule?
A: The value was “no effects”.

Q: And the explants weight (leiomyoma explants [1]; N=6)?
A: The explants weight was “lower weight”.

Q: What about the “expression of CCND1” value (leiomyoma explants [1]; explants, QRT-PCR) of the same molecule?
A: The value was “down-regulated”.

Q: What about the “expression of COL1A1” value (leiomyoma explants [1]; explants, QRT-PCR) of the same molecule?
A: Its value is “down-regulated”.

Q: And the “expression of DNMT1” value (leiomyoma explants [1]; explants, QRT-PCR)?
A: The value was “down-regulated”.

Q: What about the “expression of FN1” value (leiomyoma explants [1]; explants, QRT-PCR) of the same molecule?
A: Its value is “down-regulated”.

Q: What about the “adverse effects on blood chemistry including liver and renal panels” value (leiomyoma explants [1]; plasma) of the same molecule?
A: The value was “no adverse effects”.

Q: And the ratio of kynurenine/tryptophan (leiomyoma explants [1]; plasma)?
A: The ratio of kynurenine/tryptophan was “decreased”.

Q: And the “deposition of collagens, keratin and cytoplasm, Masson's Trichrome staining” value (leiomyoma explants [1]; xenograft explants)?
A: The value was “less deposition”.

Q: What about the TDO2 expression (leiomyoma explants [2]) of the same molecule?
A: The TDO2 expression was “down-regulated”.

Q: What about the “effects on body weight” value (leiomyoma explants [2]) of the same molecule?
A: Its value is “no effects”.

Q: What about the “effects on food consumption” value (leiomyoma explants [2]) of the same molecule?
A: The value was “no effects”.

Q: And the “expression of COL1A1” value (leiomyoma explants [2])?
A: The value was “down-regulated”.

Q: What about the “expression of MyD88” value (leiomyoma explants [2]) of the same molecule?
A: The value was “down-regulated”.

Q: What about the “expression of TGF-β3” value (leiomyoma explants [2]) of the same molecule?
A: Its value is “down-regulated”.

Q: What about the tumor size (leiomyoma explants [2]; N=2) of the same molecule?
A: Its tumor size is “reduced”.

Q: What about the “adverse effects on blood chemistry including liver and renal panels” value (leiomyoma explants [2]; plasma) of the same molecule?
A: The value was “no adverse effects”.

Q: What about the cell proliferation ([3]; Example 2) of the same molecule?
A: The cell proliferation was “significantly suppressed”.

Q: What about the spheroids cell proliferation [3, 9] of the same molecule?
A: Its spheroids cell proliferation is “significantly repressed”.

Q: And the cell proliferation ([4]; Example 2)?
A: The cell proliferation was “significantly suppressed”.

Q: And the spheroids cell proliferation [4, 9]?
A: Its spheroids cell proliferation is “significantly inhibited; also recorded: significantly repressed”.

Q: And the “expression of CYP1B1” value (leiomyoma explants [5])?
A: Its value is “decreased”.

Q: And the “expression of COL1A1 in culture-conditioned media” value (leiomyoma explants [6])?
A: Its value is “decreased”.

Q: And the “expression of COL3A1 in culture-conditioned media” value (leiomyoma explants [6])?
A: Its value is “decreased”.

Q: And the “protein expression of COL3A1” value (LSMC spheroids [7]; [10])?
A: Its value is “down-regulated dose dependently”.

Q: What about the “protein expression of IKBKB” value (LSMC spheroids [7]; [10]) of the same molecule?
A: The value was “down-regulated dose dependently”.

Q: What about the “protein expression of fibronectin” value (LSMC spheroids [7]; [10]) of the same molecule?
A: The value was “down-regulated dose dependently”.

Q: And the “expression of COL1A1” value (LSMC spheroids [7]; [11])?
A: Its value is “significantly reduced; also recorded: significantly repressed”.

Q: And the “expression of COL3A1” value (LSMC spheroids [7]; [11])?
A: Its value is “significantly reduced; also recorded: significantly repressed”.

Q: Which “expression of CYP1B1” value (leiomyoma explants [5]) does the source give for `N[C@@H](Cc1c[nH]c2ccccc12)C(=O)O` [tryptophan] here?
A: The value was “increased”.

Q: With `Nc1ccccc1C(=O)CC(N)C(=O)O` (stereo not drawn) [kynurenine] as the molecule, how does the “expression of AhR” value (LSMC spheroids [8]) read?
A: Its value is “increase”.

Q: What about the “expression of COL1A1” value (LSMC spheroids [8]) of the same molecule?
A: The value was “increase”.

Q: And the “expression of IDO1” value (LSMC spheroids [8])?
A: The value was “increase”.

Q: And the “expression of TDO2” value (LSMC spheroids [8])?
A: The value was “increase”.

Q: And the “expression of CYP1B1” value (leiomyoma explants [5])?
A: The value was “increased”.
